Results on one molecule are retold here after EPA's ToxValDB 9.5 (doi:10.2903/j.efsa.2009.195r).

One data set deals with Anas platyrhynchos. Conditions: oral, mortality.
The next data set has as its system Apis mellifera. Conditions: acute; duration: 48 hours; oral; unspecified; mortality.
The next data set concerns Daphnia magna. Conditions: chronic/long-term; duration: 21 days; reproduction.

≈ marks a conversion by molar mass, not a printed value. Where only a bound is given, the exact number is not on record here.

The term NOAEL denotes the highest tested level that showed no adverse finding. For `COC(=O)c1cccc(C)c1S(=O)(=O)NC(=O)Nc1nc(OCC(F)(F)F)nc(N(C)C)n1` [Triflusulfuron-methyl], the LD50 with Anas platyrhynchos (acute, unspecified) was over 2250 mg/kg-day; in the data set with Apis mellifera, over 100 µg/piece; with Colinus virginianus (acute, oral, mortality), over 2250 mg/kg-day; in the data set on Rattus norvegicus (acute, oral, mortality), over 5000 mg/kg-day. Also, the LC50 in the data set on Anas platyrhynchos (short-term, feed) was over 1540 mg/kg-day; with Oncorhynchus mykiss (acute, duration: 96 hours, mortality), 730 µg/mL (≈ 1480 µM); in the data set on Tagia sp. (acute, duration: 14 days, mortality), 1000 mg/kg. For the same molecule, the NOEC with Colinus virginianus (reproduction developmental) worked out at 27.6 mg/kg-day; with Daphnia magna, 11 mg/L; in the data set with Oncorhynchus mykiss (chronic/long-term, duration: 97 days, growth), 57.7 mg/L; in the data set with Tagia sp. (chronic/long-term, duration: 56 days), 250 mg/kg. Moreover, the NOAEL is 4.06 mg/kg-day with Rattus norvegicus (chronic, duration: 2 years, oral, diet, body weight); 120 mg/kg-day in the data set on Rattus norvegicus (developmental, development); 5.8 mg/kg-day in the data set on Rattus norvegicus (reproduction developmental, body weight); 6.6 mg/kg-day with Rattus norvegicus (subchronic, duration: 90 days, oral, body weight).
